Results reported in patent US20230174608A1, “Polypeptide Derivative Having Dual Receptor Agonistic Action and Use Thereof” (TIANJIN INSTITUTE OF PHARMACEUTICAL RESEARCH CO., LTD., priority 2020, published 2023).
*1 amine or outer side, *2 acyl side, *3 side chain or, on linkers, in order; H or OH if unused. Where a SMILES comes first, the peptide text is derived from it. Side-chain parts run from the residue outwards. [ ]: non-standard residue; d: D form. The star is where a group is joined. C18 diacid = O=C(O)CCCCCCCCCCCCCCCCC(=O)*; γGlu = O=C(O)[C@H](CCC(=O)[*:2])N[*:1]; Palmitoyl = CCCCCCCCCCCCCCCC(=O)*; AEEA = NCCOCCOCC(=O)O; Aib = CC(C)(N)C(=O)O

Assays:
GLP-1R = target: T1, GLP-1R (Homo sapiens, UniProt P43220); assay: GLP-1 receptor-mediated cAMP production in vitro; type: cell-based; conditions: HEK293 cell line stably expressing GLP-1R
T1 construct: expressed in transfected cells
T1 sequence (P43220 24-463, species assumed): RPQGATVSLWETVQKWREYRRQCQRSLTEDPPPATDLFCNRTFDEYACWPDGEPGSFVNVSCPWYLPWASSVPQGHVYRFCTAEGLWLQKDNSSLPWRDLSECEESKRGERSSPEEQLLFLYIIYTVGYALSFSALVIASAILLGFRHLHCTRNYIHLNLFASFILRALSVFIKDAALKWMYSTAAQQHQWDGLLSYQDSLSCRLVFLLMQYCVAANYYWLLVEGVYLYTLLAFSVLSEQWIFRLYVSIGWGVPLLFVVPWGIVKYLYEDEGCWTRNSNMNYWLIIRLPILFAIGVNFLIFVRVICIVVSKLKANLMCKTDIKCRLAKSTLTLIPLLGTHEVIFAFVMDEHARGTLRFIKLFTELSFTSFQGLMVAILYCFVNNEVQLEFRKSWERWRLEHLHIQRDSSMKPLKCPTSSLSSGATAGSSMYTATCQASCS
Description: (§1) HEK293 cell line stably expressing GLP-1R or GCGR was used for screening GLP-1R and GCGR agonist.
(§2) Preparation of test sample: each compound was prepared into 100 μM stock solution, and then gradually diluted to working concentrations of 1 μM, 100 nM, 10 nM, 1 nM, 10^−1 nM, 10^−2 nM, 10^−3 nM, and H2O.
(§3) 1) Each compound to be tested was mixed with a serum-free medium (containing 0.1% BSA and 0.5 mM IBMX) to obtain a solution at a concentration 2 times the working concentration.
(§4) 2) The cells were digested, suspended in a serum-free medium (containing 0.5 mM IBMX), counted, and placed in a 384-well plate at a density of 1,000 cells/5 μL/well, then 5 μL of the testing compound was added, and the plate was placed in dark for reaction for 30 min.
(§5) 3) After the reaction was completed, a substrate for detecting cAMP was added, and the plate was placed in dark for reaction at the room temperature for 60 min.
(§6) 4) After the reaction was completed, the plate was placed on the Envision2104 multifunctional microplate reader for detection, and the ratio of optical density (OD) values at 665 nm and 615 nm were read out.

GCGR = target: T2, GCGR (Homo sapiens, UniProt P47871); assay: GC receptor-mediated cAMP production in vitro; type: cell-based; conditions: HEK293 cell line stably expressing GCGR
T2 construct: expressed in transfected cells
T2 sequence (P47871 26-477, species assumed): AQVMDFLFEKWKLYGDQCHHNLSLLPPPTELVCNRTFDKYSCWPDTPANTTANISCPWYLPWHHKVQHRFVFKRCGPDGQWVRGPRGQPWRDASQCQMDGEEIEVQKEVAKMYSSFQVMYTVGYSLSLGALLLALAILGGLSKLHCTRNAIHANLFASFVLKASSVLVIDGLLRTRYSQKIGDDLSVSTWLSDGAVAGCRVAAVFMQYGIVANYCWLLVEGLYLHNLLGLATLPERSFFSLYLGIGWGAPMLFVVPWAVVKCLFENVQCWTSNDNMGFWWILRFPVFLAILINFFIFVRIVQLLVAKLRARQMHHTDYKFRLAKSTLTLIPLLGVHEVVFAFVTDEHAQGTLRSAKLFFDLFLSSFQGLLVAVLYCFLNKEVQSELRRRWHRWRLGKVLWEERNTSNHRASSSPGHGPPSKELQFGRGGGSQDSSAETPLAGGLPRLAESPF
Description: as §1, §2, §3, §4, §5, §6

## CCCCCCCCCCCCCCCC(=O)N[C@@H](CCC(=O)NCCOCCOCC(=O)NCCOCCOCC(=O)NCCCC[C@H](NC(=O)[C@H](C)NC(=O)[C@H](C)NC(=O)[C@H](CCCNC(=N)N)NC(=O)[C@H](CCC(=O)O)NC(=O)[C@H](CCC(=O)O)NC(=O)[C@H](CC(C)C)NC(=O)[C@H](Cc1ccc(O)cc1)NC(=O)[C@H](CCCCN)NC(=O)[C@H](CO)NC(=O)[C@H](Cc1ccc(O)cc1)NC(=O)[C@H](CC(=O)O)NC(=O)[C@H](CO)NC(=O)[C@@H](NC(=O)[C@H](Cc1ccccc1)NC(=O)[C@@H](NC(=O)CNC(=O)[C@H](CCC(N)=O)NC(=O)C(C)(C)NC(=O)[C@@H](N)Cc1c[nH]cn1)[C@@H](C)O)[C@@H](C)O)C(=O)N[C@@H](CCC(=O)O)C(=O)N[C@@H](Cc1ccccc1)C(=O)N[C@H](C(=O)N[C@@H](C)C(=O)N[C@@H](Cc1c[nH]c2ccccc12)C(=O)N[C@@H](CC(C)C)C(=O)N[C@@H](CCC(=O)O)C(=O)NCC(=O)N[C@@H](CCC(=O)O)C(=O)NCC(N)=O)[C@@H](C)CC)C(=O)O [dgc021] (H-H[Aib]QGTFTSDYSKYLEERAAK([AEEA-AEEA-γGlu-Palmitoyl])EFIAWLEGEG-NH2; N-terminus assumed)
GLP-1R
  EC50: 0.382 nM
GCGR
  EC50: 3.93 nM

## CCCCCCCCCCCCCCCC(=O)N[C@@H](CCC(=O)NCCCC[C@H](NC(=O)[C@H](C)NC(=O)[C@H](C)NC(=O)[C@H](CCCNC(=N)N)NC(=O)[C@H](CCC(=O)O)NC(=O)[C@H](CC(=O)O)NC(=O)[C@H](CC(C)C)NC(=O)[C@H](Cc1ccc(O)cc1)NC(=O)[C@H](CCCCN)NC(=O)[C@H](CO)NC(=O)[C@H](Cc1ccc(O)cc1)NC(=O)[C@H](CC(=O)O)NC(=O)[C@H](CO)NC(=O)[C@@H](NC(=O)[C@H](Cc1ccccc1)NC(=O)[C@@H](NC(=O)CNC(=O)[C@H](CCC(N)=O)NC(=O)C(C)(C)NC(=O)[C@@H](N)Cc1c[nH]cn1)[C@@H](C)O)[C@@H](C)O)C(=O)N[C@@H](CCC(=O)O)C(=O)N[C@@H](Cc1ccccc1)C(=O)N[C@H](C(=O)N[C@@H](C)C(=O)N[C@@H](Cc1c[nH]c2ccccc12)C(=O)N[C@@H](CC(C)C)C(=O)N[C@@H](CCC(=O)O)C(=O)N[C@@H](CO)C(=O)NCC(=O)NCC(N)=O)[C@@H](C)CC)C(=O)O [dgc007] (HELM PEPTIDE1{H.[Aib].Q.G.T.F.T.S.D.Y.S.K.Y.L.D.E.R.A.A.K.E.F.I.A.W.L.E.S.G.G.[am]}|PEPTIDE2{[CCCCCCCCCCCCCCCC(=O)[*:2]].[gGlu]}$PEPTIDE1,PEPTIDE2,20:R3-2:R2$$$V2.0; N-terminus assumed)
GLP-1R
  EC50: 0.28 nM
GCGR
  EC50: 0.971 nM

## CCCCCCCCCCCCCCCC(=O)N[C@@H](CCC(=O)NCCCC[C@H](NC(=O)[C@H](C)NC(=O)[C@H](C)NC(=O)[C@H](CCCNC(=N)N)NC(=O)[C@H](CCC(=O)O)NC(=O)[C@H](CC(=O)O)NC(=O)[C@H](CC(C)C)NC(=O)[C@H](Cc1ccc(O)cc1)NC(=O)[C@H](CCCCN)NC(=O)[C@H](CO)NC(=O)[C@H](Cc1ccc(O)cc1)NC(=O)[C@H](CC(=O)O)NC(=O)[C@H](CO)NC(=O)[C@@H](NC(=O)[C@H](Cc1ccccc1)NC(=O)[C@@H](NC(=O)CNC(=O)[C@H](CCC(N)=O)NC(=O)C(C)(C)NC(=O)[C@@H](N)Cc1c[nH]cn1)[C@@H](C)O)[C@@H](C)O)C(=O)N[C@@H](CCC(=O)O)C(=O)N[C@@H](Cc1ccccc1)C(=O)N[C@H](C(=O)N[C@@H](C)C(=O)N[C@@H](Cc1c[nH]c2ccccc12)C(=O)N[C@@H](CC(C)C)C(=O)N[C@@H](CCC(=O)O)C(=O)NCC(=O)NCC(N)=O)[C@@H](C)CC)C(=O)O [dgc014] (HELM PEPTIDE1{H.[Aib].Q.G.T.F.T.S.D.Y.S.K.Y.L.D.E.R.A.A.K.E.F.I.A.W.L.E.G.G.[am]}|PEPTIDE2{[CCCCCCCCCCCCCCCC(=O)[*:2]].[gGlu]}$PEPTIDE1,PEPTIDE2,20:R3-2:R2$$$V2.0; N-terminus assumed)
GLP-1R
  EC50: 0.516 nM
GCGR
  EC50: 0.821 nM

## CC(C)C[C@H](NC(=O)[C@H](Cc1c[nH]c2ccccc12)NC(=O)[C@H](C)NC(=O)[C@@H](NC(=O)[C@H](Cc1ccccc1)NC(=O)[C@H](CCC(=O)O)NC(=O)[C@H](CCCCNC(=O)COCCOCCNC(=O)COCCOCCNC(=O)CC[C@H](NC(=O)CCCCCCCCCCCCCCCCC(=O)O)C(=O)O)NC(=O)[C@H](C)NC(=O)[C@H](C)NC(=O)[C@H](CCCNC(=N)N)NC(=O)[C@H](CCC(=O)O)NC(=O)[C@H](CCC(=O)O)NC(=O)[C@H](CC(C)C)NC(=O)[C@H](Cc1ccc(O)cc1)NC(=O)[C@H](CCCCN)NC(=O)[C@H](CO)NC(=O)[C@H](Cc1ccc(O)cc1)NC(=O)[C@H](CC(=O)O)NC(=O)[C@H](CO)NC(=O)[C@@H](NC(=O)[C@H](Cc1ccccc1)NC(=O)[C@@H](NC(=O)CNC(=O)[C@H](CCC(N)=O)NC(=O)[C@@H](CO)NC(=O)[C@@H](N)Cc1c[nH]cn1)[C@@H](C)O)[C@@H](C)O)C(C)C)C(=O)N[C@@H](CCC(=O)O)C(=O)NCC(=O)NCC(N)=O [dgc012] (H-H[dS]QGTFTSDYSKYLEERAAK([AEEA-AEEA-γGlu-C18 diacid])EFVAWLEGG-NH2; N-terminus assumed)
GLP-1R
  EC50: 0.044 nM
GCGR
  EC50: 2.17 nM

## CCCCCCCCCCCCCCCC(=O)N[C@@H](CCC(=O)NCCOCCOCC(=O)NCCOCCOCC(=O)NCCCC[C@H](NC(=O)[C@H](C)NC(=O)[C@H](C)NC(=O)[C@H](CCCNC(=N)N)NC(=O)[C@H](CCC(=O)O)NC(=O)[C@H](CCC(=O)O)NC(=O)[C@H](CC(C)C)NC(=O)[C@H](Cc1ccc(O)cc1)NC(=O)[C@H](CCCCN)NC(=O)[C@H](CO)NC(=O)[C@H](Cc1ccc(O)cc1)NC(=O)[C@H](CC(=O)O)NC(=O)[C@H](CO)NC(=O)[C@@H](NC(=O)[C@H](Cc1ccccc1)NC(=O)[C@@H](NC(=O)CNC(=O)[C@H](CCC(N)=O)NC(=O)C(C)(C)NC(=O)[C@@H](N)Cc1c[nH]cn1)[C@@H](C)O)[C@@H](C)O)C(=O)N[C@@H](CCC(=O)O)C(=O)N[C@@H](Cc1ccccc1)C(=O)N[C@H](C(=O)N[C@@H](C)C(=O)N[C@@H](Cc1c[nH]c2ccccc12)C(=O)N[C@@H](CC(C)C)C(=O)N[C@@H](CCC(=O)O)C(=O)N[C@@H](C)C(=O)NCC(=O)NCC(N)=O)[C@@H](C)CC)C(=O)O [dgc011] (H-H[Aib]QGTFTSDYSKYLEERAAK([AEEA-AEEA-γGlu-Palmitoyl])EFIAWLEAGG-NH2; N-terminus assumed)
GLP-1R
  EC50: 0.955 nM
GCGR
  EC50: 4.13 nM

## CC[C@H](C)[C@H](NC(=O)[C@H](Cc1ccccc1)NC(=O)[C@H](CCC(=O)O)NC(=O)[C@H](CCCCNC(=O)COCCOCCNC(=O)COCCOCCNC(=O)CC[C@H](NC(=O)CCCCCCCCCCCCCCCCC(=O)O)C(=O)O)NC(=O)[C@H](C)NC(=O)[C@H](C)NC(=O)[C@H](CCCNC(=N)N)NC(=O)[C@H](CCC(=O)O)NC(=O)[C@H](CCC(=O)O)NC(=O)[C@H](CC(C)C)NC(=O)[C@H](Cc1ccc(O)cc1)NC(=O)[C@H](CCCCN)NC(=O)[C@H](CO)NC(=O)[C@H](Cc1ccc(O)cc1)NC(=O)[C@H](CC(=O)O)NC(=O)[C@H](CO)NC(=O)[C@@H](NC(=O)[C@H](Cc1ccccc1)NC(=O)[C@@H](NC(=O)CNC(=O)[C@H](CCC(N)=O)NC(=O)C(C)(C)NC(=O)[C@@H](N)Cc1c[nH]cn1)[C@@H](C)O)[C@@H](C)O)C(=O)N[C@@H](C)C(=O)N[C@@H](Cc1c[nH]c2ccccc12)C(=O)N[C@@H](CC(C)C)C(=O)N[C@@H](CCC(=O)O)C(=O)N[C@@H](C)C(=O)NCC(=O)NCC(N)=O [dgc006] (H-H[Aib]QGTFTSDYSKYLEERAAK([AEEA-AEEA-γGlu-C18 diacid])EFIAWLEAGG-NH2; N-terminus assumed)
GLP-1R
  EC50: 0.472 nM
GCGR
  EC50: 6.41 nM

## CCCCCCCCCCCCCCCC(=O)N[C@@H](CCC(=O)NCCCC[C@H](NC(=O)[C@H](C)NC(=O)[C@H](C)NC(=O)[C@H](CCCNC(=N)N)NC(=O)[C@H](CCC(=O)O)NC(=O)[C@H](CCC(=O)O)NC(=O)[C@H](CC(C)C)NC(=O)[C@H](Cc1ccc(O)cc1)NC(=O)[C@H](CCCCN)NC(=O)[C@H](CO)NC(=O)[C@H](Cc1ccc(O)cc1)NC(=O)[C@H](CC(=O)O)NC(=O)[C@H](CO)NC(=O)[C@@H](NC(=O)[C@H](Cc1ccccc1)NC(=O)[C@@H](NC(=O)CNC(=O)[C@H](CCC(N)=O)NC(=O)C(C)(C)NC(=O)[C@@H](N)Cc1c[nH]cn1)[C@@H](C)O)[C@@H](C)O)C(=O)N[C@@H](CCC(=O)O)C(=O)N[C@@H](Cc1ccccc1)C(=O)N[C@H](C(=O)N[C@@H](C)C(=O)N[C@@H](Cc1c[nH]c2ccccc12)C(=O)N[C@@H](CC(C)C)C(=O)N[C@@H](CCC(=O)O)C(=O)NCC(=O)NCC(N)=O)[C@@H](C)CC)C(=O)O [dgc015] (HELM PEPTIDE1{H.[Aib].Q.G.T.F.T.S.D.Y.S.K.Y.L.E.E.R.A.A.K.E.F.I.A.W.L.E.G.G.[am]}|PEPTIDE2{[CCCCCCCCCCCCCCCC(=O)[*:2]].[gGlu]}$PEPTIDE1,PEPTIDE2,20:R3-2:R2$$$V2.0; N-terminus assumed)
GLP-1R
  EC50: 0.899 nM
GCGR
  EC50: 1.53 nM
